This note sets out measurements from ChEMBL document CHEMBL4014353, “1,2,4-Triazolo-[1,5-a]pyridine HIF Prolylhydroxylase Domain-1 (PHD-1) Inhibitors With a Novel Monodentate Binding Interaction” (J Med Chem, 2017).

A short description of data set [1]: AUC (0 to t) in C57BL/6 mouse at 3 mg/kg, po administered as cassette dose. The following applies: in vivo. It is filed as ADME, organism-based.
Data set [2] is described as follows: Cmax in C57BL/6 mouse at 3 mg/kg, po administered as cassette dose. It is filed as ADME, organism-based. The arrangement: dose 3 mg/kg, route oral. The following applies: in vivo.
Data set [3] can be described thus: Oral bioavailability in C57BL/6 mouse at 3 mg/kg administered as cassette dose. It is filed as ADME, organism-based. The settings on record: in vivo.
The nature of data set [4]: Clearance in C57BL/6 mouse at 0.5 mg/kg, iv administered as cassette dose. It is filed as ADME, organism-based. The settings on record: in vivo.
Data set [5] in a line: Protein binding in mouse plasma. The following applies: read-out: PPB (converted). It is filed as ADME, cell-free.
Data set [6] in a line: Kinetic solubility of the compound by LC-UV/MS analysis. It is filed as physicochemical. The following applies: read-out: Kinetic_solubility.
A short description of data set [7]: Permeability of the compound after 5 hrs by PAMPA. It is filed as physicochemical. The settings on record: read-out: permeability. (In general: In PAMPA a lipid-coated filter parts donor from acceptor wells.)
Data set [8] is described as follows: Ratio of drug level in C57BL/6 mouse brain to plasma at 3 mg/kg, po or 0.5 mg/kg, iv administered as cassette dose. It is filed as ADME, organism-based. The following applies: brain and plasma, read-out: BPR.
Data set [9] is described as follows: Ratio of unbound brain to plasma concentration in C57BL/6 mouse at 3 mg/kg, po or 0.5 mg/kg, iv administered as cassette dose. It is filed as ADME, organism-based. The settings on record: brain and plasma, read-out: K(p,uu,brain).

≈ marks a conversion by molar mass, not a printed value.

In the case of `CC(=O)Nc1cc(-c2ccc(C#N)cc2C)n2ncnc2c1`, the AUC(0-t) in [1] stood at 3660 ng·h/mL. For the same molecule, the concentration in [2] peaked (Cmax) at 5 µM. The bioavailability in [3] worked out at 100%. Also, the clearance in [4] worked out at 17.5 mL/min/kg. Also, the fraction unbound in [5] was 0.486. The solubility kinetic in data set [6] turned out to be 99 µM (≈ 28.8 µg/mL). Moreover, the Papp at 5 h in data set [7] was determined as 2.9 ×10⁻⁶ cm/s. For the same molecule, in data set [8], the Kp turned out to be 0.03. Moreover, the Kp uu in data set [9] worked out at 0.02.
Turning to `Cc1cc(C#N)ccc1-c1cccc2ncnn12`, in [1], the exposure AUC(0-t) came out at 1870 ng·h/mL. For the same molecule, in data set [2], the highest level (Cmax) was 5.58 µM. The molecule also showed a bioavailability in [3] of 100%. The same molecule registered a clearance in data set [4] of 31.6 mL/min/kg. In addition, the fraction unbound in data set [5] is 0.21. In addition, the solubility kinetic in data set [6] stood at 189 µM (≈ 44.3 µg/mL). In addition, in data set [7], the Papp at 5 h was 40.9 ×10⁻⁶ cm/s. In addition, the Kp in data set [8] is 0.88. In addition, in [9], the Kp uu came out at 1.59.
In data set [1], `Cc1cc(C#N)ccc1-c1cc(N)cc2ncnn12` gave an AUC(0-t) of 40000 ng·h/mL. The Cmax in data set [2] came out at 14.8 µM. Moreover, the bioavailability in data set [3] worked out at 39%. The clearance in data set [4] came to 0.48 mL/min/kg. In addition, the fraction unbound in [5] is 0.302. For the same molecule, the solubility kinetic in data set [6] turned out to be 151 µM (≈ 37.6 µg/mL). The Papp at 5 h in data set [7] came out at 5.9 ×10⁻⁶ cm/s. In data set [8], the Kp was determined as 0.21. Further, in [9], the Kp uu is 0.39.
In turn, `N#Cc1ccc(-c2cccc3ncnn23)cc1` yielded an AUC(0-t) in [1] of 176 ng·h/mL. In addition, the Cmax in data set [2] came out at 0.8 µM. This molecule also registered a bioavailability in data set [3] of 40%. This molecule showed a clearance in [4] of 108 mL/min/kg. The fraction unbound in data set [5] is 0.287. Besides, the solubility kinetic in [6] was determined as 44 µM (≈ 9.69 µg/mL). Moreover, the Papp at 5 h in data set [7] was found to be 24.6 ×10⁻⁶ cm/s. For the same molecule, the Kp in [8] was 0.95. In addition, in [9], the Kp uu is 1.11.

Usually AUC(0-t) stands for exposure summed from dosing to a finite time, without extrapolation to infinity. A higher AUC(0-t) goes with high exposure. Usually Cmax stands for the peak of the concentration-time curve. For orientation: bioavailability means the share of a dose that reaches the circulation, judged against a reference dose that is usually intravenous. As a reminder, the clearance is the volume of plasma or blood freed of the substance per unit of time. A lower clearance goes with a low capacity for elimination.
